{
  "source": "ChEMBL document CHEMBL1157733",
  "about": "“Isolation, structure, and bioactivities of abiesadines A-Y, 25 new diterpenes from Abies georgei Orr” (Bioorg Med Chem, 2010)",
  "key": {"RAW264.7": {"tested_on": "RAW264.7", "assay": "Antiinflammatory activity in mouse RAW264.7 cells assessed as inhibition of LPS-induced NO release", "assay_type": "functional, cell-based"}, "[1]": {"assay": "Antiproliferative activity against human QGY7703 cells", "assay_type": "functional, cell-based", "settings": "QGY-7703"}, "[2]": {"assay": "Inhibition of TNF-alpha-induced NF-kappaB activity in human pNF-kappaB-luc-293 cells", "assay_type": "cell-based", "settings": "HEK293"}, "LoVo": {"tested_on": "LoVo", "assay": "Antiproliferative activity against human LoVo cells", "assay_type": "functional, cell-based"}},
  "data": [
    {"smiles": "C=C[C@@](C)(O)CCC1C(=C)CC[C@H]2[C@](C)(CO)CCC[C@]12C", "note": "(some centres undefined) [TORREFEROL]", "values": [
      {"measurement": "IC50", "setting": "RAW264.7", "result": "> 100", "unit": "µg/mL"},
      {"measurement": "IC50", "setting": "[1]", "result": "> 25", "unit": "µg/mL"},
      {"measurement": "IC50", "setting": "[2]", "result": "> 100", "unit": "µg/mL"},
      {"measurement": "IC50", "setting": "LoVo", "result": 24.3, "unit": "µg/mL"}
    ]}
  ]
}
